Read-outs that look alike come from different tables or passages of the source.
Key:
SJGBM-2 and UW228-2 = assay: Validation in established cell lines, Emax criterion in both cancer cell lines; format: cell-based; details: Homo sapiens; SJGBM-2 and UW228-2, selection criterion; read-out: maximum effect (Emax) in cancer cell lines
Text: (§1) DSS3 (single drug screen and validation steps) and Emax (validation step only) were estimated based on four-parameter logistic curves.

LFS fibroblasts [1] = assay: Genotoxicity screen, Micronucleus Test (MNT); format: cell-based, human; set-up: key: MNT score = number of micronuclei / number of nuclei; details: Cmax concentration (or concentration causing 20% decrease of viability), 120 h, median
Protocol: To evaluate genotoxicity of compounds, the Micronucleus Test (MNT)[96]^,[97] method was used. […] Next, the cells were visualized using ImageXpress Micro 4 High-Content Imaging System (Molecular Devices, LLC) and 4 images for each well were analyzed with CellProfiler version 4.1.3 (the pipeline described in the supplementary information).
The MNT score for a specific compound was calculated according to a following formula: MNTscore=(numberofmicronuclei/numberofnuclei)
Resulting MNT scores were compared to negative (DMSO) and positive (mitomycin C) control scores using Welch t-test (R version 4.2.2, packages stat, ggplot2). If scores were statistically different from positive control, then the compound was classified as non-genotoxic. If scores were statistically different from negative control, then the compound was classified as genotoxic.

SJ-GBM2 [2] = assay: Validation in established cell lines (0.1-10,000 nM, triplicates, 72 h, CellTiter-Glo 2.0); format: cell-based, human; details: for Emax: validation, maximum effect, 0.1-10,000 nM, 72 h; for IC50: SJ-GBM2, metabolic activity
Protocol: (§2) Following 72-hour exposure cell viability was measured using CellTiter-Glo 2.0 Assay (cat.no. G9241, Promega) and the Spark microplate reader (Tecan).
as §1

UW228-2 [3] = assay: as above; format: cell-based, human; details: for Emax: UW228-2, validation, maximum effect, 0.1-10,000 nM, 72 h; for IC50: UW228-2, metabolic activity
Protocol: as §2, §1

LFS fibroblasts [4] = assay: as above; format: cell-based; details: non-cancerous cells
Protocol: as §2, §1

[5] = cited from earlier work
[6] = system: DKFZ-BT084 PDX (LFS-associated SHH-MB), orthotopic in NSG mice; assay: In vivo drug testing in LFS SHH-MB PDX model; set-up: species or system mouse; details: adavosertib 60 mg/kg p.o. 5 times/week, vincristine 0.5 mg/kg i.p. once weekly, 4 weeks
Protocol: Animal experiment permits (G-193/21 and G-135/23) were issued by the Regional Council in Karlsruhe. In in vivo drug treatment and in vivo target dependence experiments female NOD.Cg-Prkdc^scidIl2rg^tm1Wjl/SzJ (NSG) mice were used. Intracranial patient-derived xenograft (PDX) tumor cell injections were performed in 6-8-week old animals. Following LFS-associated SHH-MB PDX models were injected: DKFZ-BT084[86] (relapsed tumor), LFS_primary[78] (gift from Prof. Aurélie Ernst, treatment-naive) and HS231222 (newly-established model, treatment-naive). After tumor detection mice were randomly assigned into 4 treatment groups (4-5 animals/group) without blinding.
LFS_primary[78] (gift from Aurélie Ernst) and HS231222. […] The control group received treatment with solvents only.

[7] = system: caspase-3 activity in SJ-GBM2 and UW228-2; assay: Caspase-3 assay (fluorometric) 48 hours after treatment; format: cell-based, human; details: SJ-GBM2 and UW228-2, 48 hours
Protocol: (§3) SJ-GBM2 and UW228-2 cells were transfected with ON-TARGETplus Human WEE1 siRNA (SMARTPool, cat.no. L-005050-00, Dharmacon Reagents) using Lipofectamine RNAiMAX Transfection Reagent (cat. no. 13778075, Invitrogen). WEE1 knockdown at protein level was confirmed by Western blot (α-WEE1 antibody [B-11], cat.no. sc-5285, Santa Cruz Biotechnology). After 72 hours cell viability was measured as described in Single drug screening method section. Caspase assay was performed 48 hours after treatment according to manufacturer instructions (cat.no. ab39383, Abcam).

SJ-GBM2 [8] = assay: WEE1 siRNA knockdown and vincristine, cell viability after 72 hours; format: cell-based; details: Homo sapiens; SJ-GBM2, 72 hours, vincristine 0.5 nM, compared to control siRNA
Protocol: as §3
(§4) Western blot bands were quantified using ImageJ (version 1.50b, Wayne Rasband and co., NIH). The readouts from 3 biological replicates were analyzed using R version 4.2.2 (packages ggplot2, DSS, stats) and presented as mean values with standard deviations.

UW228-2 [9] = assay: as above; format: cell-based; details: Homo sapiens; UW228-2, 72 hours, vincristine 0.5 nM, compared to control siRNA
Protocol: as §3, §4

[10] = system: TP53mut SHH-MB patient-derived organoids (PDOs); assay: Drug treatment assay in PDOs, summary over all three PDO models; format: cell-based; details: Homo sapiens
Protocol: (§5) Cells were treated with DMSO as negative control and with Staurosporine (10 μM) (BIO-CONNECT BV, cat.no. 62996-74-1) as positive control. Metabolic activity was measured 72h after drug treatment by adding 40 μL of CellTiter-Glo 3D cell viability assay (Promega, cat.no. G9683) to each well, shake for 5 minutes using the Multidrop Combi system dispenser and incubated at room temperature and in the dark for an additional 25 minutes. Thereafter, bioluminescence was measured using the CLARIOstarplus (BMG Labtech) plate reader. Results were normalized to DMSO negative controls (100% viability) and Staurosporine positive controls (0% viability).
(§6) In analysis of the results from PDO lines Synergy finder+ was used and growth curves were generated using R version 4.2.2 (package drc). Presented synergy scores are averages across 3 biological replicates (each with two technical replicates, from which a mean value was calculated).

[11] = system: Trp53+/- LFS mouse model (Trp53tm1Tyj/J)
Protocol: At the age of 6-8-weeks mice were randomly assigned into 4 treatment groups (3-4 animals/group) without blinding.
4-week treatment period was followed by 4-week observation period to monitor for drug toxicity-related symptoms. Afterwards the animals were sacrificed and organs (brain, liver, spleen and kidney) were extracted. Tissues were fixed for 48 hours in Roti®-Histofix 4 % (cat.no. P087.5, Roth) followed by dehydration in 50% Ethanol. […] For γH2AX (p-S139) staining 4 μm FFPE tissue sections were cut, deparaffinized and re-hydrated. […] Antibody- and H&E-stained specimens were evaluated by the pathologist (T.G.P.G.). Images were taken with the Leica DM3000 LED microscope (10-fold magnification) and analyzed using Fiji v.2.16.0 (Java 8) and R version 4.2.2 (packages ggplot2 and ggsignif).
At the stage of designing experiments, a power analysis was performed for BT084 and LFS_primary models using R version 4.1.0 (type I error: 5%, type II error: 20%). Survival, IVIS readout and weight was analyzed using R version 4.2.2 (packages stat, ggplot2, ggsignif, survival, survminer and stats). Images were analyzed using Fiji v.2.16.0 (Java 8) and R version 4.2.2 (packages ggplot2 and ggsignif).

[12] = system: TP53mut SHH-MB patient-derived organoid MED113FH; assay: Drug treatment assay in PDOs (72 h, CellTiter-Glo 3D); format: cell-based, human; details: PDO MED113FH, single drug
Protocol: as §5, §6

[13] = system: TP53mut SHH-MB patient-derived organoid B062-008; assay: as above; format: cell-based, human; details: PDO B062-008, single drug
Protocol: as §5, §6

[14] = system: TP53mut SHH-MB patient-derived organoid B062-13315; assay: as above; format: cell-based, human; details: PDO B062-13315, single drug
Protocol: as §5, §6

[15] = system: TP53mut cancer cell lines SJ-GBM2 and UW228-2; assay: Drug combination screen (synergy scores, SynergyFinder+); format: cell-based, human; details: TP53mut brain cancer cell lines
Protocol: Drugs were tested in combinations in vitro using TP53^mut cancer cell lines SJ-GBM2 and UW228-2. […] Cell metabolic activity was measured in the same way as in the single drug screen (3 technical replicates x min. 3 biological replicates for each condition).
as §6

## CCC[C@H](Nc1nc(-c2ccc(NC(=O)NCC)c(OC)c2)ncc1C)c1cccnc1 [Lexibulin]
SJGBM-2 and UW228-2
  Emax: > 50%
LFS fibroblasts [1]
  MNT_median (micronucleus test score): 2,33
SJ-GBM2 [2]; Homo sapiens
  Emax: 92.4%
UW228-2 [3]; Homo sapiens
  Emax: 64.8%
LFS fibroblasts [4]
  LFS fibroblast DSS3: 5.6

## Cn1cc(-c2[nH]c3cc(NC(=O)[C@H](N)C4CCCCC4)cc4c3c2C=NNC4=O)cn1 [PF-477736]
[5]; Cmax literature source given as NA (value 1000 for all)
  Cmax: 1000 nM
SJGBM-2 and UW228-2
  Emax: > 50%
LFS fibroblasts [1]
  MNT_median (micronucleus test score): 1,09
SJ-GBM2 [2]; Homo sapiens
  Emax: 99.2%
UW228-2 [3]; Homo sapiens
  Emax: 77.8%
LFS fibroblasts [4]
  LFS fibroblast DSS3: 3.5

## CC(=O)O[C@H]1C(=O)[C@@]2(C)[C@H]([C@H](OC(=O)c3ccccc3)[C@]3(O)C[C@H](OC(=O)[C@H](O)[C@@H](NC(=O)c4ccccc4)c4ccccc4)C(C)=C1C3(C)C)[C@]1(OC(C)=O)CO[C@@H]1C[C@@H]2O [Paclitaxel]
[5]; Cmax from literature, ref PMID: 17668866
  Cmax: 1020 nM
SJGBM-2 and UW228-2
  Emax: > 50%
LFS fibroblasts [1]
  MNT_median (micronucleus test score): 2,93
SJ-GBM2 [2]; Homo sapiens
  Emax: 90.6%
UW228-2 [3]; Homo sapiens
  Emax: 87.5%

## CC[C@]1(O)C[C@H]2CN(CCc3c([nH]c4ccccc34)[C@@](C(=O)OC)(c3cc4c(cc3OC)N(C=O)[C@H]3[C@@](O)(C(=O)OC)[C@H](OC(C)=O)[C@]5(CC)C=CCN6CC[C@]43[C@@H]65)C2)C1 [Vincristine]
[5]; Cmax from literature, ref PMID: 32635465
  Cmax: 36 nM
[6]
  Median lifespan since tumor detection: 20.5 days
[7]
  caspase-3 activity: did not influence caspase-3 activity
SJGBM-2 and UW228-2
  Emax: > 50%
LFS fibroblasts [1]
  MNT_median (micronucleus test score): 2,59
SJ-GBM2 [8]
  viability at 0.0005 µM: 62.9%
UW228-2 [9]
  viability at 0.0005 µM: 80.2%
[10]; mean over three PDOs, metabolic activity, read-out: mean IC50
  IC50: 6.8 nM
[10]; range over three PDOs, read-out: IC50 range
  IC50: 1.38 to 11.9 nM
SJ-GBM2 [2]; Homo sapiens
  IC50: 1.1 nM
  Emax: 92.5%
UW228-2 [3]; Homo sapiens
  Emax: 52.2%
  IC50: 0.9 nM
[11]; Trp53+/- mice, 4-week treatment and 4-week observation period
  Survival: 100%
[11]; mouse, in vivo
  genotoxicity or organ-specific toxicities: low to no genotoxicity or organ-specific toxicities
[12]; Homo sapiens
  IC50: 11.9 nM
[12]
  DSS: 16,96
[13]; Homo sapiens
  IC50: 7.24 nM
[13]
  DSS: 22,69
[14]; Homo sapiens
  IC50: 1.38 nM
[14]
  DSS: 54,34

## C=CCn1c(=O)c2cnc(Nc3ccc(N4CCN(C)CC4)cc3)nc2n1-c1ccc2c(n1)[C@@](O)(CC)CC2 [ZN-c3]
SJ-GBM2 [2]
  IC50: 69.7 nM
UW228-2 [3]
  IC50: 271 nM
[15]
  interaction in combination with vinca alkaloid (synergy score): additive interaction
